Reference: ChEMBL document CHEMBL5247609, “Novel nitric oxide-releasing derivatives of pyranocarbazole as antitumor agents: Design, synthesis, biological evaluation, and nitric oxide release studies” (Eur J Med Chem, 2022)
The source made the active and inactive calls. The calls are words filed in the database; no cut-off is given here.

Assays:
MDA-MB-231 [1] = assay: Antitumor activity against human MDA-MB-231 cells xenografted in BALBC mouse assessed as reduction of tumor volume at 150 mg/kg, IG administered every 3 days for 21 days relative to control; format: functional; set-up: scale not given: the % may be the effect or the level left; details: time 21 day
MX1 [2] = assay: Induction of apoptosis in human MX1 cells assessed as upregulation of Bax by Western blotting analysis; format: functional, cell-based; details: dose 0.5-2 µM
MX1 [3] = assay: Induction of apoptosis in human MX1 cells assessed as early apoptotic cells measured at 2 uM after 48 hrs by FITC-Annexin-V and propidium iodide based flow cytometric analysis (reference value: 6.30%); format: functional
MX1 [4] = assay: Induction of apoptosis in human MX1 cells assessed as early apoptotic cells measured at 5 uM after 48 hrs by FITC-Annexin-V and propidium iodide based flow cytometric analysis (reference value: 6.30%); format: functional
EMT6 = assay: Antitumor activity against mouse EMT6 cells allografted in BALBC mouse a assessed as reduction in tumor growth inhibition at 150 mg/kg, IG administered every 3 days for 21 days relative to control; format: functional; details: EMT6, po, 504 h, time 21 day, read-out: TGI
MDA-MB-231 [5] = assay: Induction of morphological changes in human MDA-MB-231 cells assessed as decrease in cell size at 0.5 to 2 uM measured after 24 hrs by bright field inverted microscopic analysis; format: functional, cell-based; details: dose 0.5-2 µM

For `CC1(C)C=Cc2c(c(/C=C/C(=O)NCCOc3no[n+]([O-])c3S(=O)(=O)c3ccccc3)cc3c2[nH]c2ccc(C(C)(C)C)cc23)O1`, the Activity (MDA-MB-231 [1]) was 40%, the Activity (MX1 [2]) was “Dose-Dependent Effect” and the Activity (MX1 [3]) was 85.3%. For the same compound, the Activity (MX1 [4]) was 57.8%, the inhibition in vivo at 150 mg/kg (EMT6) was 50.1% and the Activity (MDA-MB-231 [5]) was “Active”.
